Source: patent publication US7323454B2, “Etonogestrel esters” (N.V. Organon, priority 2002, dated 2008)

Test: Pharmacokinetics of etonogestrel esters in the rabbit after one i.m. injection; plasma etonogestrel by LC-MSMS
Format: in vivo
Method: For the determination of the pharmacokinetic profile of the different etonogestrel-esters after parenteral application, i.m. application in the castrated rabbit model was chosen instead of s.c. Briefly, rabbits were injected once (day 1) with indicated etonogestrel-esters at 20 mg/kg in arachis oil (with a concentration of 40 mg/ml). At day 1, 2, 3, 4, 5, 6, 7, 8, 10, 12, 14, 21, 28, 35, 49, 63, 77, 92, 106, 120 and 133 blood was collected from the ear arteria, in EDTA-containing tubes. EDTA plasma was prepared (1500 g, 15 min) and stored at −20° C. With LC-MSMS the amount of parent compound (etonogestrel) was determined in these samples. The lower limit of this new assay is 0.5 nmol/l, from 0-250 nmol/l a linear curve was obtained with a correlation coefficient of 0,9998.

[1] = one i.m. injection, 20 mg/kg in arachis oil
[2] = one i.m. injection, 20 mg/kg in arachis oil, parent etonogestrel measured

For `C#C[C@]1(OC(=O)CCCCCCCC)CC[C@H]2[C@@H]3CCC4=CC(=O)CC[C@@H]4[C@H]3C(=C)C[C@@]21CC` [Etonogestrel nonanoate], the “duration with serum levels of etonogestrel above 1 nmol/l (in words)” value [1] was “extended duration” and the “initial peak levels of etonogestrel (in words)” value [1] was “lower peak levels”.

For `C#C[C@]1(OC(=O)CCCCCC)CC[C@H]2[C@@H]3CCC4=CC(=O)CC[C@@H]4[C@H]3C(=C)C[C@@]21CC` [Etonogestrel-heptanoate], the “initial peak level of etonogestrel in plasma” value (shortened to “initial peak level … in plasma”) [2] was 120 nmol/L.

In the case of `C#CC1(OC(=O)CCCCCCCCC)CCC2C3CCC4=CC(=O)CCC4C3C(=C)CC21CC` (stereo not shown) [etonogestrel decanoate], the “time of initial peak level of etonogestrel” value (from here on “time … of etonogestrel”) [1] is reported as 5 days and the “initial peak level … in plasma” value [2] is reported as 24 nmol/L.

For `C#C[C@]1(OC(=O)CCCCCCCCCCC)CC[C@H]2[C@@H]3CCC4=CC(=O)CC[C@@H]4[C@H]3C(=C)C[C@@]21CC` [etonogestrel dodecanoate], the “time … of etonogestrel” value [1] was 8 days and the “initial peak level … in plasma” value [2] was 9 nmol/L.

In the case of `C#C[C@]1(OC(=O)CCCCCCCCCCCC)CC[C@H]2[C@@H]3CCC4=CC(=O)CC[C@@H]4[C@H]3C(=C)C[C@@]21CC` [etonogestrel tridecanoate], the “initial peak levels of etonogestrel (in words)” value [1] is reported as “no initial levels of etonogestrel were observed”.

With `C#C[C@]1(OC(=O)CCCCCCCCCC)CC[C@H]2[C@@H]3CCC4=CC(=O)CC[C@@H]4[C@H]3C(=C)C[C@@]21CC` [etonogestrel undecanoate] the “duration of action (etonogestrel level above 1 nmol/l)” value [1] was “more than 92 days”, the “time … of etonogestrel” value [1] was “eight” and the “initial peak level … in plasma” value [2] was 13 nmol/L.

With `C#C[C@]1(O)CC[C@H]2[C@@H]3CCC4=CC(=O)CC[C@@H]4[C@H]3C(=C)C[C@@]21CC` [etonogestrel, (17α)-13-ethyl-17-hydroxy-11-methylene-18,19-dinorpregn-4-en-20-yn-3-one] the “initial peak level … in plasma” value (in vivo, 20 mg/kg) was 200 nmol/L and the “time in which etonogestrel levels declined to below 1 nmol/l” value (in vivo, 20 mg/kg) was 28 days.
